Laboratory results taken from US20170166598A1, “HETEROARYL COMPOUNDS FOR KINASE INHIBITION” (ARIAD PHARMACEUTICALS, INC., priority 2014, published 2017).

How the values were obtained:
Type in all cases: cell-based
[1] = molecular target: T1, human EGFR exon 20 insertion NPG (H773_V774insNPG) (Homo sapiens, UniProt P00533, INS772GNP); assay: Ba/F3-EGFR-Exon20-NPG cell anti-proliferative assay (CellTiter 96 MTS, 72 h); details: Ba/F3-EGFR-Exon20-NPG cells
T1 construct: expressed in transfected cells; host or cells: Ba/F3 (murine pro-B) cells transduced with lentivirus from pLVX-IRES puro
Summary of the method: (§1)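 Viable-cell readout used absorbance at 490 nm of MTS-derived formazan, 2 h after reagent addition, following 72 h compound treatment at 37 °C, 5% CO2. Cells: puromycin-selected, IL-3-depleted Ba/F3 expressing EGFR exon 20 ASV or NPG; dosing 4-fold series from 10,000 nM.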

[2] = molecular target: T2, Her2 exon 20 YVMA insertion (A775_G776ins YVMA) (Homo sapiens, UniProt P04626, INS775YVMA); assay: Ba/F3-Her2 Exon20 YVMA cell anti-proliferative assay (CellTiter 96 MTS, 72 h); details: Ba/F3-Her2 Exon20 YVMA cells
T2 construct: expressed in transfected cells; host or cells: Ba/F3 (murine pro-B) cells transduced with lentivirus from pLVX-IRES puro
T2 sequence (P04626 with tags, fused parts or gaps INS775YVMA): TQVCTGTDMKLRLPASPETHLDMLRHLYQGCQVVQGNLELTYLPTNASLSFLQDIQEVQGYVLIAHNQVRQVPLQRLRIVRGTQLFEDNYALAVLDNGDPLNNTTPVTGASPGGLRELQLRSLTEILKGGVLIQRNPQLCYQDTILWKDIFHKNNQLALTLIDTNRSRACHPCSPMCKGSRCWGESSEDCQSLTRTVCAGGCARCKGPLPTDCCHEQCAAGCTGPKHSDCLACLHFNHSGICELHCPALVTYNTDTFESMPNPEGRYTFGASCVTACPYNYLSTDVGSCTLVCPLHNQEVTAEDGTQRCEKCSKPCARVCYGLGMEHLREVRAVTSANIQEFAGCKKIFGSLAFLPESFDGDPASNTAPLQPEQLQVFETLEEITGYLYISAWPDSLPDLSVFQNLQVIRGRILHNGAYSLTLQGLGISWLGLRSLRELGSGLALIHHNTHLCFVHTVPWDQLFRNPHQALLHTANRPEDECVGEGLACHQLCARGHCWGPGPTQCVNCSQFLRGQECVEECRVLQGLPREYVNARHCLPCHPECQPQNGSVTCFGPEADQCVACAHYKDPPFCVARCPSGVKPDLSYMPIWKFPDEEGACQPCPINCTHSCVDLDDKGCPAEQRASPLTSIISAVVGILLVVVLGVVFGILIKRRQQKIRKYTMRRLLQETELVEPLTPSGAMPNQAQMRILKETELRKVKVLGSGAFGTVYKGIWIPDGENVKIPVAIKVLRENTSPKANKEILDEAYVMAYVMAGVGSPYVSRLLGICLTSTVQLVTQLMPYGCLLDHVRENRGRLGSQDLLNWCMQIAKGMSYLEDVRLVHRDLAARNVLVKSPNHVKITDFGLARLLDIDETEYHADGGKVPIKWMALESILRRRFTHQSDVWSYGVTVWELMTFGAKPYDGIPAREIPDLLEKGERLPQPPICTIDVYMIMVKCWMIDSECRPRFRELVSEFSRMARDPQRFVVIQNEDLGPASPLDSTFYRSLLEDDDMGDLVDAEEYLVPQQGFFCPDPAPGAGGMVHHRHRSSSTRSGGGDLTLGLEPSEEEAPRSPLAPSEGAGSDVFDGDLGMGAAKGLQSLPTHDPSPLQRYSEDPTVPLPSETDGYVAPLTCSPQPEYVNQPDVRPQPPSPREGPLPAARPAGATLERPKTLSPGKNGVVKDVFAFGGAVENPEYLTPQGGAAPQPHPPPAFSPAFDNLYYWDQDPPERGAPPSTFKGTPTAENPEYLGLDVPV
Summary of the method: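 Anti-proliferation: compound series (top 10,000 nM, 4-fold steps) was applied to Ba/F3-Her2 Exon20 YVMA cells grown without IL-3 for 72 h. Viability was read colorimetrically (CellTiter 96 Aqueous One, A490, 2 h reagent incubation).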

[3] = molecular target: T3, human EGFR E746-A750 deletion and T790M Mutation (Homo sapiens, UniProt P00533, DEL746-750/T790M); assay: Ba/F3-EGFR-Del/T790M cell anti-proliferative assay (CellTiter 96 MTS, 72 h); details: Ba/F3-EGFR-Del/T790M cells
T3 construct: expressed in transfected cells; host or cells: Ba/F3 (murine pro-B) cells transduced with lentivirus from pLVX-IRES puro
T3 sequence (P00533 with tags, fused parts or gaps DEL746-750/T790M): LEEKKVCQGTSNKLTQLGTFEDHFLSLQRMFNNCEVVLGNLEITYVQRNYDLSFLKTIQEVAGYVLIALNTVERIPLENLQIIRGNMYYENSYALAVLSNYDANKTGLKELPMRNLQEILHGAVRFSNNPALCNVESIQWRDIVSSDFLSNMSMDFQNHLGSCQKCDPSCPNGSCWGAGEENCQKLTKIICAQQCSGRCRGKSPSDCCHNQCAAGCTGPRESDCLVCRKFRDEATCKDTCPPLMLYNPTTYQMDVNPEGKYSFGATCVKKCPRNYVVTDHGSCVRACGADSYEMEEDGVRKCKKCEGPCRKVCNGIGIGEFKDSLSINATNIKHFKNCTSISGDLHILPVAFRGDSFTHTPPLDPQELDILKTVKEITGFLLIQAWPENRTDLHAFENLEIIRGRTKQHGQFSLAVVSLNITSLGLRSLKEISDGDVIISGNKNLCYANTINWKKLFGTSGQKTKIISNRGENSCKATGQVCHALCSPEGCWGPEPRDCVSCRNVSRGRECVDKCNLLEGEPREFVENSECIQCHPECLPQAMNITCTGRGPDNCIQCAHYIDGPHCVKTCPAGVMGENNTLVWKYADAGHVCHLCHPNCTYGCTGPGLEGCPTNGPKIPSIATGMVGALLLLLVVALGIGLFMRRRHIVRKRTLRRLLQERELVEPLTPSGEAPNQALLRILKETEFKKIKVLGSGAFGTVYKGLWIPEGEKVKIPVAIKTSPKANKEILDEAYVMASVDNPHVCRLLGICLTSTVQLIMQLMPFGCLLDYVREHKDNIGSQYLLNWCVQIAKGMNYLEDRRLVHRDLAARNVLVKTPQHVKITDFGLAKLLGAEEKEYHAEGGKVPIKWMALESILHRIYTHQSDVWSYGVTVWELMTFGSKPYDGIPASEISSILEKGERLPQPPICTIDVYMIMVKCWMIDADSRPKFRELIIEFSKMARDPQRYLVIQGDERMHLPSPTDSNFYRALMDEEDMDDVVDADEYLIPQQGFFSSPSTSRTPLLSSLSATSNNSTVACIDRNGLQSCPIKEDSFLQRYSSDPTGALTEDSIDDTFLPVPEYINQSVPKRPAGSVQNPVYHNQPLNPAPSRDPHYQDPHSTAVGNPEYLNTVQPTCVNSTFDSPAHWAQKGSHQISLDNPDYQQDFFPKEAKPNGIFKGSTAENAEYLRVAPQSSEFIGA
Summary of the method: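 Compound exposure: 72 h, 37 °C, 4-fold series topping at 10,000 nM. Target cells are Ba/F3 transduced with EGFR exon 19 deletion plus T790M, selected by puromycin and IL-3 withdrawal. Viable cell number inferred from MTS metabolic conversion, A490 read 2 h after reagent addition.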

[4] = molecular target: T4, human EGFR exon 20 insertion ASV (V769_D770insASV) (Homo sapiens, UniProt P00533, INS769ASV); assay: Ba/F3-EGFR-Exon20-ASV cell anti-proliferative assay (CellTiter 96 MTS, 72 h); details: Ba/F3-EGFR-Exon20-ASV cells
T4 construct: expressed in transfected cells; host or cells: Ba/F3 (murine pro-B) cells transduced with lentivirus from pLVX-IRES puro
T4 sequence (P00533 with tags, fused parts or gaps INS769ASV): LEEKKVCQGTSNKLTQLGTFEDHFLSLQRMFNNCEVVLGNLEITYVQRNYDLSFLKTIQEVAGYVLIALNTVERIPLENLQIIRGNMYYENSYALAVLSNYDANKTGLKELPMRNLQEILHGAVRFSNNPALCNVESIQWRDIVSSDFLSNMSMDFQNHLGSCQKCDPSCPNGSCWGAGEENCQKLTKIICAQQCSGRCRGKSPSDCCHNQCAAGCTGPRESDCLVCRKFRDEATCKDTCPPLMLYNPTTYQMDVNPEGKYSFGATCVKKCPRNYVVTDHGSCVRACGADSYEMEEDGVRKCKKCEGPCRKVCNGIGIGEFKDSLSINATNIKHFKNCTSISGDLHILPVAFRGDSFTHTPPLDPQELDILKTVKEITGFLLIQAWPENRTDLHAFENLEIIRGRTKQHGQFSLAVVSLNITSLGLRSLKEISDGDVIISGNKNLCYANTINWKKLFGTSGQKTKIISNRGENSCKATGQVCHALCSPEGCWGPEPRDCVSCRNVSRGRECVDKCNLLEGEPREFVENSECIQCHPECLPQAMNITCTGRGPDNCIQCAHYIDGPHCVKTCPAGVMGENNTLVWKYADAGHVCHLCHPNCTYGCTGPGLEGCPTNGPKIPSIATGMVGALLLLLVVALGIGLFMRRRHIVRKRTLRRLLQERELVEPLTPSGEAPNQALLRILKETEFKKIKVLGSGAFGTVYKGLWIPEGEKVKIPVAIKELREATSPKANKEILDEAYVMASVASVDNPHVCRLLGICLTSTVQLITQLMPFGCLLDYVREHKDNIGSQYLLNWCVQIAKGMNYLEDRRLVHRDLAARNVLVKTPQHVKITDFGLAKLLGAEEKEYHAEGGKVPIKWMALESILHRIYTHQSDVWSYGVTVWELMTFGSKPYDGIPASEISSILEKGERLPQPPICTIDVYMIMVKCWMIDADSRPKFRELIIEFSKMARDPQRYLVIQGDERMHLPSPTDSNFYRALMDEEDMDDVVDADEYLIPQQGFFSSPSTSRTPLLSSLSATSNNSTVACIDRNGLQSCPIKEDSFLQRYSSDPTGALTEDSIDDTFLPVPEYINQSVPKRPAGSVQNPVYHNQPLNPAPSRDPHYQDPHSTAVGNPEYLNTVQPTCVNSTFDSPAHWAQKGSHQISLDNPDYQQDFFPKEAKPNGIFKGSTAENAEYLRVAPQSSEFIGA
Summary of the method: as §1

[5] = molecular target: T5, human EGFR L858R and T790M double mutation (Homo sapiens, UniProt P00533, L858R/T790M); assay: Ba/F3-EGFR L858R/T790M cell anti-proliferative assay (CellTiter 96 MTS, 72 h); details: Ba/F3-EGFR L858R/T790M cells
T5 construct: expressed in transfected cells; host or cells: Ba/F3 (murine pro-B) cells transduced with lentivirus from pLVX-IRES puro
T5 sequence (P00533 25-1210 T790M/L858R): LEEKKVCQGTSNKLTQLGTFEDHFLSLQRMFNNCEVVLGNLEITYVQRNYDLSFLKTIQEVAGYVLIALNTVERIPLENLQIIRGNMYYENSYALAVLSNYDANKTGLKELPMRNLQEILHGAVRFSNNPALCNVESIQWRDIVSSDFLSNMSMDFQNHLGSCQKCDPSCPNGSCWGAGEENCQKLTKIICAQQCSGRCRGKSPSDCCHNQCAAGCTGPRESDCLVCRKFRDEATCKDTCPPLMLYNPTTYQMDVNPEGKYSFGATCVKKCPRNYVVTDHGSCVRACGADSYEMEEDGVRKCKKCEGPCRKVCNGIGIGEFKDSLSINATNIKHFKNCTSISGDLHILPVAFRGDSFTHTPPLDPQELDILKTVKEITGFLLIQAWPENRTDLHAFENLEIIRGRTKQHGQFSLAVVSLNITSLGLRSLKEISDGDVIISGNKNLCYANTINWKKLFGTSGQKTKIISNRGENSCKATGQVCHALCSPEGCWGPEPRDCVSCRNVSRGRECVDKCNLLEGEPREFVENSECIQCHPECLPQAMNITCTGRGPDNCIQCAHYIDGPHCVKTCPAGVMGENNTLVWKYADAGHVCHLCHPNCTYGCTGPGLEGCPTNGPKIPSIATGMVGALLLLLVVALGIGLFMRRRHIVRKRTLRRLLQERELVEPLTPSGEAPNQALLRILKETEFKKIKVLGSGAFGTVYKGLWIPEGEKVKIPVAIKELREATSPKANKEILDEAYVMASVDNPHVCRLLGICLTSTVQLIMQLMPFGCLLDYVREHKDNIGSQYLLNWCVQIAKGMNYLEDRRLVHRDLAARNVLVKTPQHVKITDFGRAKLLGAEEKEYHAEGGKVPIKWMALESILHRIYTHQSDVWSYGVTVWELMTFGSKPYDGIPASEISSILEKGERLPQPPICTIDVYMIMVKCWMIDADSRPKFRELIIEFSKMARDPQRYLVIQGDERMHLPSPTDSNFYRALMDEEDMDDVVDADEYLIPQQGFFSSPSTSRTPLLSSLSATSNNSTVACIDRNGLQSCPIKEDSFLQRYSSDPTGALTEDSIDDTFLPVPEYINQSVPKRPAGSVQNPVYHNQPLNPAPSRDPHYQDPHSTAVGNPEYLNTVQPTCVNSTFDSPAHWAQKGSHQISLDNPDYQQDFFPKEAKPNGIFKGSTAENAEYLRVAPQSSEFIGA
Procedure: An expression vector, pLVX-IRES puro (Clontech) coding for human EGFR L858R and T790M double mutation, was transfected into HEK293 cells by the Trans-Lentiviral ORF Packaging System (Thermo Scientific), to produce virus encoding EGFR L858R and T790M double mutations. Ba/F3 (DSMZ) cells maintained in RPMI 1640 medium supplemented with 10% fetal bovine serum, 200 μM L-glutamine/l 200 μg/mL penicillin/200 μg/mL streptomycin (Life Technology) and 10 ng/mL IL-3 (R&D system), were infected by EGFR L858R and T790M double mutation virus and subsequently selected by puromycin (Life Technology) selection and IL-3 depletion. […] The anti-proliferative activity of compounds was determined as follows: BaF3-EGFR L858R/T790M cells seeded in 96 well plates (2500 cells/well) were treated with test compound (dissolved in DMSO) at a series of concentrations (4-fold dilution, top concentration: 10,000 nM). The plates were incubated for 72 h in a 37° C. incubator with 5% CO2, and the number of viable cells in each well were measured indirectly by CellTiter 96® Aqueous One Solution Cell Proliferation Assay (Promega; this assay is a colorimetric method for determining the number of viable cells through measurement of their metabolic activity by detection of enzymatic conversion of tetrazolium salts into blue formazan derivatives). Reagent (20 μL) was added into each well, and the plates were returned to the incubator for 2 h. The absorbance in each well was then measured at 490 nm using an Envision plate reader (Perkin Elmer).

Q: Which IC50 [1] does the source give for C=CC(=O)Nc1cc(Nc2ncc(C#N)c(-c3cn4c5c(cccc35)CCC4)n2)c(OC)cc1N(C)CCN(C)C [Example 14, N-(5-((5-cyano-4-(5,6-dihydro-4H-pyrrolo[3,2,1-ij]quinolin-1-yl)pyrimidin-2-yl)amino)-2-((2-(dimethylamino)ethyl)(methyl)amino)-4-methoxyphenyl)acrylamide] here?
A: > 1000 nM

Q: And the IC50 [2]?
A: < 100 nM

Q: What about the “EGFR exon 19 deletion and exon 20 T790M mutation IC50” value [3] of the same compound?
A: A (IC50 value for the indicated mutant below about 100 nM)

Q: And the IC50 [4]?
A: < 100 nM

Q: And the “EGFR exon 21 L858R and exon 20 T790M mutation IC50” value [5]?
A: A (IC50 value for the indicated mutant below about 100 nM)

Q: C=CC(=O)Nc1cc(Nc2ncc(C#N)c(-c3cn4c5c(cccc35)CCC4)n2)c(OC)cc1N(C)CCN(C)C(C)C [Example 26, N-(5-((5-cyano-4-(5,6-dihydro-4H-pyrrolo[3,2,1-ij]quinolin-1-yl)pyrimidin-2-yl)amino)-2-((2-(isopropyl(methyl)amino)ethyl)(methyl)amino)-4-methoxyphenyl)acrylamide] was tested. Which IC50 [1] did it give?
A: < 100 nM

Q: And the IC50 [2]?
A: < 100 nM

Q: And the “EGFR exon 19 deletion and exon 20 T790M mutation IC50” value [3]?
A: A (IC50 value for the indicated mutant below about 100 nM)

Q: What about the IC50 [4] of the same compound?
A: < 100 nM

Q: What about the “EGFR exon 21 L858R and exon 20 T790M mutation IC50” value [5] of the same compound?
A: A (IC50 value for the indicated mutant below about 100 nM)

Q: How did the IC50 [1] turn out when C=CC(=O)Nc1cc(Nc2ncc(C=C)c(-c3cn4c5c(cccc35)CCC4)n2)c(OC)cc1N(C)CCN(C)C [Example 27, N-(5-((4-(5,6-dihydro-4H-pyrrolo[3,2,1-ij]quinolin-1-yl)-5-vinylpyrimidin-2-yl)amino)-2-((2-(dimethylamino)ethyl)(methyl)amino)-4-methoxyphenyl)acrylamide] was run?
A: < 100 nM

Q: And the IC50 [2]?
A: < 100 nM

Q: What about the “EGFR exon 19 deletion and exon 20 T790M mutation IC50” value [3] of the same compound?
A: A (IC50 value for the indicated mutant below about 100 nM)

Q: What about the IC50 [4] of the same compound?
A: < 100 nM

Q: What about the “EGFR exon 21 L858R and exon 20 T790M mutation IC50” value [5] of the same compound?
A: A (IC50 value for the indicated mutant below about 100 nM)

Q: What does the source list for C=CC(=O)Nc1cc(Nc2ncc(CCC3CCOC3)c(-c3cn4c5c(cccc35)CCC4)n2)c(OC)cc1N(C)CCN(C)C (stereo not shown) [Example 36, N-(5-((4-(5,6-dihydro-4H-pyrrolo[3,2,1-ij]quinolin-1-yl)-5-(2-(tetrahydrofuran-3-yl)ethyl)pyrimidin-2-yl)amino)-2-((2-(dimethylamino)ethyl)(methyl)amino)-4-methoxyphenyl)acrylamide]?
A: IC50 [1]: < 100 nM; IC50 [2]: 100 to 500 nM; EGFR exon 19 deletion and exon 20 T790M mutation IC50 [3]: A (IC50 value for the indicated mutant below about 100 nM); IC50 [4]: 100 to 500 nM; EGFR exon 21 L858R and exon 20 T790M mutation IC50 [5]: B (IC50 value for the indicated mutant between about 100 to about 500 nM)

Q: Which IC50 [1] does the source give for C=CC(=O)Nc1cc(Nc2ncc(CCC(C)(C)O)c(-c3cn4c5c(cccc35)CCC4)n2)c(OC)cc1N(C)CCN(C)C [Example 37, N-(5-((4-(5,6-dihydro-4H-pyrrolo[3,2,1-ij]quinolin-1-yl)-5-(3-hydroxy-3-methylbutyl)pyrimidin-2-yl)amino)-2-((2-(dimethylamino)ethyl)(methyl)amino)-4-methoxyphenyl)acrylamide] here?
A: < 100 nM

Q: What about the IC50 [2] of the same compound?
A: 100 to 500 nM

Q: And the “EGFR exon 19 deletion and exon 20 T790M mutation IC50” value [3]?
A: A (IC50 value for the indicated mutant below about 100 nM)

Q: And the IC50 [4]?
A: < 100 nM

Q: What about the “EGFR exon 21 L858R and exon 20 T790M mutation IC50” value [5] of the same compound?
A: B (IC50 value for the indicated mutant between about 100 to about 500 nM)

Q: How did the IC50 [1] turn out when C=CC(=O)Nc1cc(Nc2ncc(CCC(O)CC)c(-c3cn4c5c(cccc35)CCC4)n2)c(OC)cc1N(C)CCN(C)C (stereo not shown) [Example 38, N-(5-((4-(5,6-dihydro-4H-pyrrolo[3,2,1-ij]quinolin-1-yl)-5-(3-hydroxypentyl)pyrimidin-2-yl)amino)-2-((2-(dimethylamino)ethyl)(methyl)amino)-4-methoxyphenyl)acrylamide] was run?
A: < 100 nM

Q: And the IC50 [2]?
A: < 100 nM

Q: What about the “EGFR exon 19 deletion and exon 20 T790M mutation IC50” value [3] of the same compound?
A: A (IC50 value for the indicated mutant below about 100 nM)

Q: What about the IC50 [4] of the same compound?
A: < 100 nM

Q: What about the “EGFR exon 21 L858R and exon 20 T790M mutation IC50” value [5] of the same compound?
A: A (IC50 value for the indicated mutant below about 100 nM)

Q: For C=CC(=O)Nc1cc(Nc2ncc(CCC(N)=O)c(-c3cn4c5c(cccc35)CCC4)n2)c(OC)cc1N(C)CCN(C)C [Example 40, N-(5-((5-(3-amino-3-oxopropyl)-4-(5,6-dihydro-4H-pyrrolo[3,2,1-ij]quinolin-1-yl)pyrimidin-2-yl)amino)-2-((2-(dimethylamino)ethyl)(methyl)amino)-4-methoxyphenyl)acrylamide], which IC50 [1] is on record?
A: 100 to 500 nM

Q: And the IC50 [2]?
A: > 1000 nM

Q: And the “EGFR exon 19 deletion and exon 20 T790M mutation IC50” value [3]?
A: A (IC50 value for the indicated mutant below about 100 nM)

Q: And the IC50 [4]?
A: 500 to 1000 nM

Q: And the “EGFR exon 21 L858R and exon 20 T790M mutation IC50” value [5]?
A: B (IC50 value for the indicated mutant between about 100 to about 500 nM)

Q: C=CC(=O)Nc1cc(Nc2ncc(C(N)=O)c(-c3cn4c5c(cccc35)CCC4)n2)c(OC)cc1N(C)CCN(C)C [Example 46, 2-((5-acrylamido-4-((2-(dimethylamino)ethyl)(methyl)amino)-2-methoxyphenyl)amino)-4-(5,6-dihydro-4H-pyrrolo[3,2,1-ij]quinolin-1-yl)pyrimidin-5-carboxamide] was tested. Which IC50 [1] did it give?
A: < 100 nM

Q: And the IC50 [2]?
A: 100 to 500 nM

Q: What about the “EGFR exon 19 deletion and exon 20 T790M mutation IC50” value [3] of the same compound?
A: A (IC50 value for the indicated mutant below about 100 nM)

Q: And the IC50 [4]?
A: < 100 nM

Q: What about the “EGFR exon 21 L858R and exon 20 T790M mutation IC50” value [5] of the same compound?
A: A (IC50 value for the indicated mutant below about 100 nM)

Q: With C=CC(=O)Nc1cc(Nc2ncc(C(=O)NCCOC)c(-c3cn4c5c(cccc35)CCC4)n2)c(OC)cc1N(C)CCN(C)C [Example 47, 2-((5-acrylamido-4-((2-(dimethylamino)ethyl)(methyl)amino)-2-methoxyphenyl)amino)-4-(5,6-dihydro-4H-pyrrolo[3,2,1-ij]quinolin--yl)-N-(2-methoxyethyl)pyrimidine-5-carboxamide] as the compound, how does the IC50 [1] read?
A: < 100 nM

Q: What about the IC50 [2] of the same compound?
A: 500 to 1000 nM

Q: What about the “EGFR exon 19 deletion and exon 20 T790M mutation IC50” value [3] of the same compound?
A: B (IC50 value for the indicated mutant between about 100 to about 500 nM)

Q: And the IC50 [4]?
A: 100 to 500 nM

Q: And the “EGFR exon 21 L858R and exon 20 T790M mutation IC50” value [5]?
A: C (IC50 value for the indicated mutant between greater than about 500 to about 1 μM)

Q: What does the source list for C=CC(=O)Nc1cc(Nc2ncc(C(=O)NCCO)c(-c3cn4c5c(cccc35)CCC4)n2)c(OC)cc1N(C)CCN(C)C [Example 48]?
A: IC50 [1]: < 100 nM; IC50 [2]: > 1000 nM; EGFR exon 19 deletion and exon 20 T790M mutation IC50 [3]: B (IC50 value for the indicated mutant between about 100 to about 500 nM); IC50 [4]: 500 to 1000 nM; EGFR exon 21 L858R and exon 20 T790M mutation IC50 [5]: C (IC50 value for the indicated mutant between greater than about 500 to about 1 μM)

Q: Which IC50 [1] does the source give for C=CC(=O)Nc1cc(Nc2ncc(Cl)c(-c3cn4c5c(cccc35)OCC4)n2)c(OC)cc1N(C)CCN(C)C [Example 76, N-(5-((5-chloro-4-(2,3-dihydro-[1,4]oxazino[2,3,4-hi]indol-6-yl)pyrimidin-2-yl)amino)-2-((2-(dimethylamino)ethyl)(methyl)amino)-4-methoxyphenyl)acrylamide] here?
A: < 100 nM

Q: What about the IC50 [2] of the same compound?
A: 100 to 500 nM

Q: And the “EGFR exon 19 deletion and exon 20 T790M mutation IC50” value [3]?
A: A (IC50 value for the indicated mutant below about 100 nM)

Q: And the IC50 [4]?
A: < 100 nM

Q: What about the “EGFR exon 21 L858R and exon 20 T790M mutation IC50” value [5] of the same compound?
A: A (IC50 value for the indicated mutant below about 100 nM)
